The values below come from patent publication US20260060987A1, “METHODS AND COMPOSITIONS FOR RADIOPROTECTION AND MITIGATION OF RADIATION-INDUCED INJURY USING KINASE INHIBITORS” (Incyte Corporation, priority 2024, published 2026).

Broadly, the IC50 is the concentration needed to halve the response being measured.

This experiment has as its target PI3Kδ (Homo sapiens, UniProt O00329). The experiment in a line: PI3Kδ inhibition, IC50 at 1 mM ATP. The experiment is classed as biochemical.

Sequence of PI3Kδ (O00329 whole entry): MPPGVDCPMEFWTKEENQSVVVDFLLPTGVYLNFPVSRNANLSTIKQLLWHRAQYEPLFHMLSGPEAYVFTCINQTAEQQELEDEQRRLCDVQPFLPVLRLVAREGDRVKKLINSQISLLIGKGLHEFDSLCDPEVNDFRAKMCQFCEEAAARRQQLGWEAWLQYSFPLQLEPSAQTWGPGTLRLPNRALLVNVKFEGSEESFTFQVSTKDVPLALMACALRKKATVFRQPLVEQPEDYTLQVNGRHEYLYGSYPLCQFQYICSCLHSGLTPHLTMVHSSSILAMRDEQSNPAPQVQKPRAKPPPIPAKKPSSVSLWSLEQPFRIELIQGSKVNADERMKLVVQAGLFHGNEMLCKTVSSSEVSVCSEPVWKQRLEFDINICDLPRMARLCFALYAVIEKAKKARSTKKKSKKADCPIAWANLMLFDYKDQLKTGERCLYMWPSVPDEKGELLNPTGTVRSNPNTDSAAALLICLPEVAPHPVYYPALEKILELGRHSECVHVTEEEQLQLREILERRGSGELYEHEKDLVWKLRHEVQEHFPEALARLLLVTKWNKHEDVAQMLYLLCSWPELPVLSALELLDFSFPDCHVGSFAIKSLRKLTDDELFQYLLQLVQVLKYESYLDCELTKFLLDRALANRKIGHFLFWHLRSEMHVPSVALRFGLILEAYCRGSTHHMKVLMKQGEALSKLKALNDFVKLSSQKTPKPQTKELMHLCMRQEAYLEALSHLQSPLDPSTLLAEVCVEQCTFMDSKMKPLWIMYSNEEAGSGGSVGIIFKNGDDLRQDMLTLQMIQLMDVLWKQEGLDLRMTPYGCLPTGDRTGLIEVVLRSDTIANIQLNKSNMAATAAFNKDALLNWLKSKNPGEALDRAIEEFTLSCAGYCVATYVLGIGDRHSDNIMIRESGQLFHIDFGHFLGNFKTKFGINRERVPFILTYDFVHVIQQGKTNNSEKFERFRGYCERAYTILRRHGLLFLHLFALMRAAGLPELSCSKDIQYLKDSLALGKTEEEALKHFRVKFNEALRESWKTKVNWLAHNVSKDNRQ
Sequence of PI3Kδ (P27986 whole entry partner): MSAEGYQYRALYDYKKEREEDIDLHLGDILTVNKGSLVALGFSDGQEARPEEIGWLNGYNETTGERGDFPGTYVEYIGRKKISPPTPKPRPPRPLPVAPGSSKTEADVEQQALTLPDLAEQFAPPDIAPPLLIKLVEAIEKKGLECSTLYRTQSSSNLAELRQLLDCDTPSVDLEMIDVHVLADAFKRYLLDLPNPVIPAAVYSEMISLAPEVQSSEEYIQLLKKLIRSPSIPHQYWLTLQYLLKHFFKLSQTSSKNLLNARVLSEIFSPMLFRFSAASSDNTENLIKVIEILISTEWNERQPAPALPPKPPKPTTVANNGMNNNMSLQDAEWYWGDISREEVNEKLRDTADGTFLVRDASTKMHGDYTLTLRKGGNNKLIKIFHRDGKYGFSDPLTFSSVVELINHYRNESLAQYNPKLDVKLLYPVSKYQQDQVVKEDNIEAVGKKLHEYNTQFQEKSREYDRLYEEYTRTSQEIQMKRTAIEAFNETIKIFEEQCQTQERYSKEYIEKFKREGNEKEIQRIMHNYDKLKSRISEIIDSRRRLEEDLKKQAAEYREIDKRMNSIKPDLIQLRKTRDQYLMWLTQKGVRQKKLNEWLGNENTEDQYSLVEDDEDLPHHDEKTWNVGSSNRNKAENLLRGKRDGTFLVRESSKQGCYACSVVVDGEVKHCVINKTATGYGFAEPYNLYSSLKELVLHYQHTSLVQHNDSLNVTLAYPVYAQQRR

For the compound `CCOc1c([C@H](C)n2nc(C)c3c(N)ncnc32)cc(Cl)c(F)c1[C@@H]1CNC(=O)C1` [parsaclisib, (R)-4-(3-((S)-1-(4-amino-3-methyl-1H-pyrazolo[3,4-d]pyrimidin-1-yl)ethyl)-5-chloro-2-ethoxy-6-fluorophenyl) pyrrolidin-2-one], 1 nM corresponded to half-maximal inhibition (IC50).
